Reference: paper PMC9968691, “Perfluoroalkyl substances (PFASs) are substrates of the renal human organic anion transporter 4 (OAT4)” (Archives of Toxicology, 2022)
“Also recorded” adds a separate entry of the source. Marks after values point to notes of the source that are not given here.

Tests used:
URAT1 [1] = test system: URAT1; parameters: method as in Iwanaga et al. 2005; Morrissey et al. 2012; conditions: probe substrate; ref Iwanaga et al. 2005; Morrissey et al. 2012; cited from earlier work
human URAT1 = target: T1, human URAT1 (Homo sapiens, UniProt Q96S37); experiment: Screening of cellular PFAS accumulation in URAT1-transfected vs control-transfected HEK293 cells (PFAS mixture); type: cell-based; conditions: yes/no as identified in vitro in this study
T1 construct: expressed in transfected cells; host or cells: HEK293 cells transduced with recombinant baculovirus (CMV promoter)
T1 sequence (Q96S37 1-553): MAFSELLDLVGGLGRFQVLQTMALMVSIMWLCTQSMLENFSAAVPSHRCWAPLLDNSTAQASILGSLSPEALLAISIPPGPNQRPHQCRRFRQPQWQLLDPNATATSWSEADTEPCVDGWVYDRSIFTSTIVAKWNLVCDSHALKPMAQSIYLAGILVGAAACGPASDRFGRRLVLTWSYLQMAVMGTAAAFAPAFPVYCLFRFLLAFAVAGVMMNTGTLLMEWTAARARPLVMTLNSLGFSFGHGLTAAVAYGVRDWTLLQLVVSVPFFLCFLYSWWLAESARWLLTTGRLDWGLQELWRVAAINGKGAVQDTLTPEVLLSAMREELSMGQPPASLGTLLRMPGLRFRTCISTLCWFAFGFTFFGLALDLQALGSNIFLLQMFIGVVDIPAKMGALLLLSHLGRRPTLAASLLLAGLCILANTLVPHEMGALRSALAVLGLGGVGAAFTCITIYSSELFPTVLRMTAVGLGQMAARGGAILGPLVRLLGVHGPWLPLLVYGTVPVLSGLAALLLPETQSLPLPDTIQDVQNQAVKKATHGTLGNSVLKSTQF
Source text: (§1) The recombinant baculoviruses that contain the cDNA of human transporters OAT4 and URAT1 downstream of a cytomegalovirus (CMV) promotor were generated as previously described (Smeets et al. [2020]). As a negative control, baculovirus containing the gene for enhanced yellow fluorescence protein (eYFP) was produced similarly. Moreover, transduction of HEK293 cells and uptake assays were essentially performed as previously described (Smeets et al. [2020]). The culture medium was removed and cells were washed with buffer (HBSS plus 10 mM HEPES, pH 7.4). Uptake was initiated by replacing this solution with 150 µL of fresh transport buffer (HBSS (Life Technologies Invitrogen (Carlsbad, CA, USA))-HEPES (Sigma-Aldrich), pH 7.4) supplemented with the PFASs for 10 min. To terminate the reaction, transport buffer was replaced with 400 µL ice-cold HBSS-HEPES buffer containing 0.5% BSA (m/v; Roche Diagnostics GmbH (Mannheim, Germany)), after which the cells were washed twice with ice-cold HBSS-HEPES. Cellular PFAS concentrations were determined based on the method described by Rosenmai et al. ([2018]). Briefly, cells were solubilised in 250 µL lysis buffer and cell lysates were stored in Eppendorf tubes at − 80 °C and defrozen when needed for LC–MS analysis and for quantification of the protein concentration.
(§2) To 50 μL cell lysate, 850 μL methanol (Actu-All Chemicals, Oss, The Netherlands) containing internal standards (^13C4-PFHpA, ^13C4-PFOA, ^13C5-PFNA, ^13C2-PFDA, ^13C3-PFBS, ^18O2-PFHxS and ^13C4-PFOS (Wellington Laboratories, Canada) was added. These dilutions were vortexed well before centrifugation at maximum speed for 10 min at 4 °C. PFAS concentrations in the supernatant were determined using LC–MS/MS analysis. If required, samples were further diluted with methanol and containing internal standards. LC–MS/MS analysis was based on a Shimadzu UHPLC system containing: 2 pumps (LC 20AD xr); column oven (Shimadzu CTO-20AC); pump switch (Shimadzu FCV-11AL); degasser (Shimadzu DGU-20A3); and sample tray holder (Shimadzu SIL-20 AC XR model) (Shimadzu Corporation, Kyoto, Japan). An Acquity BEH-C18 analytical column (50 × 2.1 mm i.d., 1.7 μm, Waters, Milford, MA, USA) was used to separate the PFASs at a column temperature of 35 °C. In addition, a symmetry C18 analytical column (50 × 2.1 mm i.d., 5 µm, Waters, Milford, MA, USA) was used as a guard column, placed between the pump and the injector valve to isolate and delay interferences out of the LC system. The mobile phase consisted of 2 mM ammonium acetate (Merck Millipore, Darmstadt, Germany) in Milli-Q water (prepared using a Milli-Q system with a resistivity of at least 18.2 MΩ cm^−1 (Merck Millipore)) (mobile phase A) and Acetonitrile ULC/MS grade (Actu-All Chemicals, Oss, The Netherlands) (mobile phase B). The injection volume used was 20 μL. The chromatographic gradient was operated at a flow rate of 0.3 mL min^−1 starting from 25% mobile phase B in the first 0.1 min, a linear increase to 100% B in 6 min with a final hold of 2.5 min. The gradient was returned to 25% B within 0.1 min for 3.9 min to equilibrate before the next injection, resulting in a total run of 12.5 min.
(§3) Cellular PFAS content was normalised to cellular protein. To that end, from each cell lysate, 25 µL was used to determine the protein concentration (technical duplicate) using the Pierce BCA Protein Assay Kit (Thermo Scientific, Waltham, MA). First, samples were diluted two times with lysis buffer directly in a 96-wells plate (PS, F-bottom, clear; Greiner Bio-One, Alphen aan de Rijn, The Netherlands), and in each plate, a BSA standard curve (0.05–2 mg mL^−1 in lysis buffer) was included allowing protein quantification of the samples. The manufacturer’s protocol was followed for the subsequent steps and absorbance was measured using a microplate reader (Synergy™ HT BioTek, Winooski, VT) at 562 nm. […]

human OAT4 [2] = target: T2, human OAT4 (Homo sapiens, UniProt Q9NSA0); experiment: OAT4-mediated cellular uptake kinetics (Michaelis–Menten) in OAT4-transfected vs control-transfected HEK293 cells; type: cell-based; conditions: OAT4-transfected minus control-transfected HEK293 cells, 1 min exposure, 1-300 µM; best-fit value (standard error)
T2 construct: expressed in transfected cells; host or cells: HEK293 cells transduced with recombinant baculovirus (CMV promoter)
T2 sequence (Q9NSA0 1-550): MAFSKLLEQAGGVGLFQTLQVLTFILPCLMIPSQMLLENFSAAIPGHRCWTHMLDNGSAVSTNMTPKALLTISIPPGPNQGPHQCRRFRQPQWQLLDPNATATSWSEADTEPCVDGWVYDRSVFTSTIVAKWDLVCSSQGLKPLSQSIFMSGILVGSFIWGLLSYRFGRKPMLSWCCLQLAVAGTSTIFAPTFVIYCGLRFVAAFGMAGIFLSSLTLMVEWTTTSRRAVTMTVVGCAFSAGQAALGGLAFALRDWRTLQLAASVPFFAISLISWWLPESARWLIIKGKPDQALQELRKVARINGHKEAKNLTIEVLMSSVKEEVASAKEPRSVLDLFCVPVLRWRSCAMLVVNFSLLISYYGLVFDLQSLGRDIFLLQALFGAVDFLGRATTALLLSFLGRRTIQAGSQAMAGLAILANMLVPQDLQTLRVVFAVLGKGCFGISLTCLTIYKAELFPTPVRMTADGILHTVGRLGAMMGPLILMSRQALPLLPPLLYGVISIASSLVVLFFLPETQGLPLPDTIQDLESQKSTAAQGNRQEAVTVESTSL
Description: OAT4- and control-transfected cells were exposed for 1 min to a range of PFAS concentrations (1, 3, 10, 30, 100 and 300 µM) and cellular amounts were determined.
OAT4-transfected cells and control-transfected cells were exposed for 1 min to a range of PFAS concentrations and cellular amounts were determined. Amounts obtained in control-transfected cells were subtracted from amounts obtained in OAT4-transfected cells to obtain OAT4-mediated cellular uptake rates.

human OAT4 [3] = target: T2, human OAT4; experiment: Screening of cellular PFAS accumulation in OAT4-transfected vs control-transfected HEK293 cells (PFAS mixture); type: cell-based; conditions: for Transport by OAT4 (cellular PFAS level in OAT4-transfected vs control-transfected cells; substantial = at least twofold higher): PFAS mixture, each 1 µM, 10 min; for OAT4 substrate: yes/no as identified in vitro in this study
Source text: as §1, §2, §3

[4] = (average) serum half-life; ref Xu et al. (2020) for PFHpA; Olsen et al. (2007), Li et al. (2018), Xu et al. (2020) for PFOA, PFHxS, PFOS; Olsen et al. (2009) for PFBS; cited from earlier work
albumin = conditions: ref Allendorf et al. (2019); cited from earlier work
OAT4 [5] = test system: OAT4; parameters: method as in Kimura et al. 2002; Morrissey et al. 2012; conditions: probe substrate; ref Kimura et al. 2002; Morrissey et al. 2012; cited from earlier work
OAT4 [6] = test system: OAT4; parameters: method as in Yang et al. 2010; conditions: OAT4-expressing CHO cells; ref Yang et al. 2010; cited from earlier work
URAT1 [7] = test system: URAT1; parameters: method as in Yang et al. 2010; conditions: URAT1-expressing HEK293 cells; ref Yang et al. 2010; cited from earlier work

| Compound | URAT1 substrate (URAT1 [1]) | URAT1 substrate (human URAT1) | Apparent Vmax (human OAT4 [2]) | Transport by OAT4 (cellular PFAS level in OAT4-transfected vs control-transfected cells; substantial = at least twofold higher) (human OAT4 [3]) | OAT4 substrate (human OAT4 [3]) | Reported half-life in humans [4] | Reported albumin/water partition coefficients (albumin) | OAT4 substrate (OAT4 [5]) | Km (OAT4 [6]) | Vmax (OAT4 [6]) | Km (URAT1 [7]) | Vmax (URAT1 [7]) |
| --- | --- | --- | --- | --- | --- | --- | --- | --- | --- | --- | --- | --- |
| O=c1[nH]c(=O)c2[nH]c(=O)[nH]c2[nH]1 [Uric acid, uric acid] | Yes | – | – | – | – | – | – | – | – | – | – | – |
| O=S(=O)(O)C(F)(F)C(F)(F)C(F)(F)C(F)(F)C(F)(F)C(F)(F)C(F)(F)C(F)(F)F [PFOS, perfluorooctane sulfonate] | – | No | 2.2 nmol min^−1 mg protein^−1 | substantial transport; also recorded: more than twofold increase | Yes | 1.8–5.4^c years | 4.7 L/kg | – | – | – | – | – |
| CCCCC[C@H](O)/C=C/[C@H]1[C@H](O)CC(=O)[C@@H]1C/C=C\CCCC(=O)O [Prostaglandin E2, prostaglandin E2] | – | – | – | – | – | – | – | Yes | – | – | – | – |
| O=C(O)C(F)(F)C(F)(F)C(F)(F)C(F)(F)C(F)(F)C(F)(F)C(F)(F)F [PFOA, perfluorooctanoic acid] | – | No | – | substantial transport; also recorded: more than twofold increase | Yes | 1.8–3.8^c years | 4.2 L/kg | – | 310 µM | 37 nmol min^−1 mg protein^−1 | 64 µM | 0.32 nmol min^−1 mg protein^−1 |
